Tests used:
Type in all cases: biochemical
[1] = system: exonuclease free Klenow fragment of DNA polymerase I (EFK); test: primer extension assay, EFK, Templates 1 and 2, Example 13; conditions: for substrate for the polymerase (EFK), incorporation: 20 μM total nucleotide, 37° C. for 3 minutes, Template 1 or Template 2; for substrate quality compared with the analogue with the shorter linker arm: EFK primer extension, 20 μM
Method: A primer extension assay was used to evaluate compounds (3.3a), (3.3b), (4.3a),(4.3b) and (8.1) as substrates for exonuclease free Klenow fragment of DNA polymerase I (EFK). The assay used a ^33P 5′ end labelled 15 mer primer hybridised to one of two 24 mer templates. The sequences of the primer and templates are:
(§1) One picomole ^33P labelled primer was hybridised to 2 picomoles of template in ×2 Klenow buffer. To this was added either 20 μM dCTP or 20 μM (3.3a) or 20 μM (3.3b) or 20 μM (4.3a) or 20 μM (4.3b) or 20 μM (8.1) or mixtures of dCTP and compound (3.3a) or (3.3b) or (4.3a) or (4.3b) or (8.1) keeping the total nucleotide concentration fixed at 20 μM. One unit EFK and 2 mU inorganic pyrophosphatase were used per reaction. Primer alone, primer plus template plus enzyme controls were also carried out. The reactions were incubated at 37° C. for 3 minutes. Reactions were then stopped by the addition of formamide/EDTA stop solution. Reaction products were separated on a 19% polyacrylamide 7M urea gel and the product fragments sized by comparison with a ^33P labelled 8 to 32 base oligonucleotide ladder after exposure to Kodak Biomax autoradiography film.

[2] = system: exonuclease free Klenow fragment of DNA polymerase I (EFK); test: primer extension assay, EFK, Example 14; conditions: 80 μM (1.6), with or without 4 μM dNTPαS, 37° C. for 3 minutes
Method: A primer extension assay was used to evaluate compound (1.6) as a substrate for exonuclease free Klenow fragment of DNA polymerase I (EFK). The assay used a ^33P 5′ end labelled 15 mer primer hybridised to a 24 mer template. The sequences of the primer and template are:
One picomole ^33P labelled primer was hybridised to 2 picomoles of template in ×2 Klenow buffer. To this was added either 4 μM dNTPαS or 80 μM (1.6) or a mixture of 4 μM dNTPαS 80 μM (1.6). One unit EFK and 2 mU inorganic pyrophosphatase were used per reaction. Primer alone, primer plus template plus enzyme controls were also carried out. The reactions were incubated at 37° C. for 3 minutes. Reactions were then stopped by the addition of formamide I EDTA stop solution. Reaction products were separated on a 19% polyacrylamide 7M urea gel and the product fragments sized by comparison with a ^33P labelled 8 to 32 base oligonucleotide ladder after exposure to Kodak Biomax autoradiography film.

[3] = target: terminal deoxynucleotidyl transferase (Bos taurus, UniProt P06526); test: oligonucleotide tailing reaction with terminal deoxynucleotidyl transferase; conditions: 32 μM nucleotide, 25 U terminal deoxynucleotidyl transferase, 15 mer primer, 90 minutes at 37° C.
Description: 1-(2′-deoxy-5′-triphospho-β-D-ribofuranosyl)piperidino[2,3-d]pyrimidine-2(1H)-one (1.6), 6-methylamine-3-(5-triphospho-2-deoxy-β-D-erythro-pentofuranosyl)furano[2,3-d]pyrimidin-2-one) (3.3a) and 5-FAM-(6-methylamine-3-(5-triphospho-2-deoxy-β-D-erythro-pentofuranosyl)furano[2,3-d]pyrimidin-2-one) (3.3b), 6-methyl-N-(6-amino)-caproamide-3-(5-triphospho-2-deoxy-β-D-erythro-pentofuranosyl)furano[2,3-d]pyrimidin-2-one (4.3a) and 5-FAM-(6-methyl-N-(6-amino)-caproamide-3-(5-triphospho-2-deoxy-β-D-erythro-pentofuranosyl)furano[2,3-d]pyrimidin-2-one) (4.3b), 6-methylamine-3-(5-triphospho-2-deoxy-β-D-erythro-pentofuranosyl)pyrrolo[2,3-d]pyrimidin-2-one) (8.1), 6-methyl-N-(6-amino)-caproamide-3-(5-triphospho-2-deoxy-β-D-erythro-pentofuranosyl)pyrrolo[2,3-d]pyrimidin-2-one (10.1a), and the FAM and Cy5 of (10.1a, e.g. 10.1b and 10.1c) as substrates for terminal deoxynucleotidyl transferase. In order to test the ability of compounds (1.6), (3.3a), (3.3b), (4.3a), (4.3b), (8.1), (10.1a), (10.1b) and (10.1c) to be accepted by terminal deoxynucleotidyl transferase as a substrate, an oligonucleotide tailing reaction was performed.
A 15 mer primer (sequence: 5′ TGC ATG TGC TGG AGA 3′) and 8 to 32 base oligonucleotide markers were 5′ end labelled with [γ^33P] ATP and T4 polynucleotide kinase. Reactions were boiled for 5 minutes after labelling to remove any PNK activity. Four picomoles of the labelled primer, 25 U terminal deoxynucleotidyl transferase and 32 μM dATP, dCTP, dGTP, dTTP or compounds (1.6), (3.3a), (3.3b), (4.3a), (4.3b), (8.1), (10.1a), (10.1b) and (10.1c) were incubated in 25 μl 100 mM cacodylate buffer pH7.2, 2 mM CoCl2 and 0.2 mM 2-mercaptoethanol for 90 minutes at 37° C. The reactions were stopped by the addition of formamide stop solution and the reaction products run on a 19% polyacrylamide 7M urea gel with the labelled markers. Autoradiography using Biomax film was carried out on the dry gel.

[4] = target: Thermus aquaticus DNA polymerase (Thermus aquaticus, UniProt P19821); test: incorporation into arabidopsis DNA by PCR; conditions: 5% to 50% (10.1a), balance dCTP, 35 cycles
Method: Incorporation of (10.1a) into arabidopsis DNA by PCR was carried out as follows:
The (10.1a) was used in the PCR at various percentages with a balance of dCTP such that the total concentration of (10.1a) and dCTP was equivalent to each of the other three base dNTP's. The percentages of (10.1a) used were:
After PCR, the samples were purified by Qiagen column and analysed by 1% agarose gel.

[5] = system: exonuclease free Klenow fragment of DNA polymerase I (EFK); test: primer extension assay, EFK, Example 12; conditions: 20 μM total nucleotide, 37° C. for 3 minutes, 24 mer template
Method: A primer extension assay was used to evaluate compounds (10.1a), (10.1b) and (10.1c) as substrates for exonuclease free Klenow fragment of DNA polymerase I (EFK). The assay used a ^33P 5′ end labelled 15 mer primer hybridised to a 24 mer template. The sequences of the primer and template are:
as §1, with “μM (10.1a)” for “μM (3.3a)”, “μM (10.1b)” for “μM (3.3b)”, “μM (10.1c)” for “μM (4.3a) or 20 μM (4.3b) or 20 μM (8.1)”, “compound (10.1a)” for “compound (3.3a)”, “or compound (10.1b)” for “or (3.3b)”, “or compound (10.1c)” for “or (4.3a) or (4.3b) or (8.1)”

[6] = system: AMV reverse transcriptase; test: 1st strand cDNA synthesis, incorporation monitored by 33P-dATP spike, TLC and gel
Method: Incorporation of compound (10.1a) into 1st strand cDNA was carried out using a balance of dCTP such that the total concentration of (10.1a) and dCTP was equivalent to each of the other three dNTP concentrations.
(10.1a) was used at three different percentages
These reactions were compared with reactions including Cy5 labelled dCTP. All reactions were monitored by carrying out the reaction in duplicate and monitoring one of the duplicates with a spike of ^33P-dATP.
1 μl ^33P-dATP-active samples only
1 μl AMV reverse transcriptase 20 U/μl
Incubate at 42° C. for 2½ hours
The cDNA reactions were monitored by TLC as follows
1 μl of sample was spotted onto PEI cellulose TLC plates and run in 1.25M Potassium phosphate buffer
Samples were then purified by Qiagen column and eluted in 50 μl of water. The active cDNA products were analysed on a 6% polyacrylamide gel
The gel was then covered in Saran wrap and exposed to phosphorscreen for 1 hour. Phosphorscreen analysis was carried out on the Molecular Dynamics Storm 860 instrument.

Sequence of terminal deoxynucleotidyl transferase (P06526 whole entry): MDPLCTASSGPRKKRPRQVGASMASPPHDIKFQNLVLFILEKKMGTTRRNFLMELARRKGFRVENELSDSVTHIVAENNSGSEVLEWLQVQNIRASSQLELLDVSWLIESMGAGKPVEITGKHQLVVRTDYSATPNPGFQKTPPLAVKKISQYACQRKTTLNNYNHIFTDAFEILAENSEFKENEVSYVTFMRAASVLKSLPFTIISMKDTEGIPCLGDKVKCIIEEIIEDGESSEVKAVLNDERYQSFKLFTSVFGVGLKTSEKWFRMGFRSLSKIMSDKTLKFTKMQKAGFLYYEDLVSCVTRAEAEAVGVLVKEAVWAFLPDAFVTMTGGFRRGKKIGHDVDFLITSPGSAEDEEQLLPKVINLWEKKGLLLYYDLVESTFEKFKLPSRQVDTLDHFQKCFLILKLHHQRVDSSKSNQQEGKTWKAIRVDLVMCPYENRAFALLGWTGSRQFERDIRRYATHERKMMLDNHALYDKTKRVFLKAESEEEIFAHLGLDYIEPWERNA
Sequence of Thermus aquaticus DNA polymerase (P19821 whole entry): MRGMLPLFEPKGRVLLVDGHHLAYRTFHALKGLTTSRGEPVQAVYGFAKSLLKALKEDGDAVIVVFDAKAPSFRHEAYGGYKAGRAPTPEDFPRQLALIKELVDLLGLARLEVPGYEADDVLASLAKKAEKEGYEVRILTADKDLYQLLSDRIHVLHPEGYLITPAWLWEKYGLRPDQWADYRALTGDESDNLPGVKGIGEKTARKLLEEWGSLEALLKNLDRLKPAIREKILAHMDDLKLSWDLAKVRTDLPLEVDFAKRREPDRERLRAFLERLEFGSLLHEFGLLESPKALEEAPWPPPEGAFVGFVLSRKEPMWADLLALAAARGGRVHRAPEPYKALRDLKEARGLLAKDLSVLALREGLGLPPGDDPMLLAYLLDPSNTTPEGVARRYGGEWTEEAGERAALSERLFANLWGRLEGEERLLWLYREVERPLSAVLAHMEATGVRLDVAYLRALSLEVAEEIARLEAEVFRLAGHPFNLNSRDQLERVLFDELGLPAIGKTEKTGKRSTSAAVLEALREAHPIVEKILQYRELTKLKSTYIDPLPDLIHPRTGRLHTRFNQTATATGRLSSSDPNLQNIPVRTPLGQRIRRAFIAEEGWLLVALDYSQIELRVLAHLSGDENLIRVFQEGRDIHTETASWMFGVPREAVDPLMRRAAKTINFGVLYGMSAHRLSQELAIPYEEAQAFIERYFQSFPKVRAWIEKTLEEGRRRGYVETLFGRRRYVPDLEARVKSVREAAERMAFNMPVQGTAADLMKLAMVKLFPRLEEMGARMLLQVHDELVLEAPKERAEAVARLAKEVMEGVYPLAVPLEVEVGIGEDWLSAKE

Question: `NCCCCCC(=O)NCC=Cc1cn([C@H]2C[C@H](O)[C@@H](COP(=O)(O)OP(=O)(O)OP(=O)(O)O)O2)c(=O)nc1N` [5-allylaminocaproamide dCTP, reference compound] was tested. Which “incorporation by the polymerase” value ([1]; under similar assay conditions) did it give?
Answer: did not show any incorporation

Question: Which “substrate for EFK, incorporation in place of dCTP” value [2] does the source give for `O=c1nc2c(cn1C1CC(O)C(COP(=O)(O)OP(=O)(O)OP(=O)(O)O)O1)CCCN2` [Compound 1.6, 1-(2′-deoxy-5′-triphospho-β-D-ribofuranosyl)piperidino[2,3-d]pyrimidine-2(1H)-one] here?
Answer: a substrate for EFK and that it was efficiently incorporated in place of dCTP

Question: What about the “3′ tail length” value [3] of the same compound?
Answer: equivalent to those produced by dCTP at the same concentration

Question: With `NCc1cc2cn([C@H]3C[C@H](O)[C@@H](COP(=O)(O)OP(=O)(O)OP(=O)(O)O)O3)c(=O)nc2o1` [Compound 3.3a] as the compound, how does the “substrate for the polymerase (EFK), incorporation” value [1] read?
Answer: not a substrate for the polymerase

Question: Which “substrate for the polymerase (EFK), incorporation” value [1] does the source give for `O=C(NCc1cc2cn([C@H]3C[C@H](O)[C@@H](COP(=O)(O)OP(=O)(O)OP(=O)(O)O)O3)c(=O)nc2o1)c1ccc2c(c1)C(=O)OC21c2ccc(O)cc2Oc2cc(O)ccc21` [Compound 3.3b, 5-Carboxyfluoresceinyl-(6-methylamine-3-(5-triphospho-2-deoxy-β-D-erythro-pentofuranosyl)furano[2,3-d]pyrimidin-2-one)] here?
Answer: not a substrate for the polymerase using either of the Templates

Question: For `NCCCCCC(=O)NCc1cc2cn([C@H]3C[C@H](O)[C@@H](COP(=O)(O)OP(=O)(O)OP(=O)(O)O)O3)c(=O)nc2o1` [Compound 4.3a, 6-Methyl-N-(6-amino)-caproamide-3-(5-triphospho-2-deoxy-β-D-erythro-pentofuranosyl)furano[2,3-d]pyrimidin-2-one], which “substrate for the polymerase (EFK), incorporation” value [1] is on record?
Answer: a substrate for the polymerase again being able to replace dCTP

Question: What about the “substrate quality compared with the analogue with the shorter linker arm” value [1] of the same compound?
Answer: better substrate than (3.3a)

Question: And the “3′ tail length” value [3]?
Answer: 7-9 bases

Question: With `O=C(CCCCCNC(=O)c1ccc2c(c1)C(=O)OC21c2ccc(O)cc2Oc2cc(O)ccc21)NCc1cc2cn([C@H]3C[C@H](O)[C@@H](COP(=O)(O)OP(=O)(O)OP(=O)(O)O)O3)c(=O)nc2o1` [Compound 4.3b, 5-FAM-(6-methyl-N-(6-amino)-caproamide-3-(5-triphospho-2-deoxy-β-D-erythro-pentofuranosyl)furano[2,3-d]pyrimidin-2-one)] as the compound, how does the “substrate for the polymerase (EFK), incorporation” value [1] read?
Answer: only incorporated in reactions using Template 2

Question: And the “3′ tail length” value [3]?
Answer: 9-14 bases

Question: For `NCc1cc2cn([C@H]3C[C@H](O)[C@@H](COP(=O)(O)OP(=O)(O)OP(=O)(O)O)O3)c(=O)nc2[nH]1` [Compound 8.1], which “substrate for the polymerase (EFK), incorporation” value [1] is on record?
Answer: a substrate for the polymerase being able to substitute for dCTP

Question: Which results are given for `NCCCCCC(=O)NCc1cc2cn([C@H]3C[C@H](O)[C@@H](COP(=O)(O)OP(=O)(O)OP(=O)(O)O)O3)c(=O)nc2[nH]1` [Compound 10.1a, 6-methyl-N-(6-amino)-caproamide-3-(5-triphospho-2-deoxy-β-D-erythro-pentofuranosyl)pyrrolo[2,3-d]pyrimidin-2-one]?
Answer: formation of PCR product, agarose gel analysis [4]: resulted in the formation of PCR product; substrate for the polymerase (EFK), incorporation in place of dCTP [5]: surprisingly good substrate; substrate quality compared with the analogue with the shorter linker arm [1]: better substrate than (8.1); 33P-dATP Incorporation (TLC) ([6]; 50% (10.1a), balance dCTP): 23.2%; 33P-dATP Incorporation (TLC) ([6]; 75% (10.1a), balance dCTP): 16.5%; 33P-dATP Incorporation (TLC) ([6]; 100% (10.1a), no dCTP): 11.5%; 3′ tail length [3]: 7-8 bases

Question: For `O=C(CCCCCNC(=O)c1ccc2c(c1)C(=O)OC21c2ccc(O)cc2Oc2cc(O)ccc21)NCc1cc2cn([C@H]3C[C@H](O)[C@@H](COP(=O)(O)OP(=O)(O)OP(=O)(O)O)O3)c(=O)nc2[nH]1` [Compound 10.1b, 5-FAM-(6-methyl-N-(6-amino)-caproamide-3-(5-triphospho-2-deoxy-β-D-erythro-pentofuranosyl)pyrrolo[2,3-d]pyrimidin-2-one)], which “3′ tail length” value [3] is on record?
Answer: 18-24 bases

Question: With “Cy5-(6-methyl-N-(6-amino)-caproamide-3-(triphospho-2-2deoxy-β-D-erythro-pentofuranosyl)pyrrolo[2,3-d]pyrimidin-2-one [Compound 10.1c]” as the compound, how does the “3′ tail length” value [3] read?
Answer: greater than 30 bases

From patent US6605611B2, “Base analogues” (Nycomed Amersham PLC, priority 1997, dated 2003)
